Test results: patent US8551693B2 (priority 2008, dated 2013)
Like-named read-outs stand apart in the source and are kept apart here.

Legend:
[1] = system: HEK293 Cameleon cell line (intracellular Ca2+); test: Confocal microscopy FRET ratio in HEK293 cell line stably expressing the Cameleon biosensor alone; assay type: cell-based, human; settings: 10 μM ionomycin, ratio versus time, FIG. 3B
Description: FIG. 3A: Individual Venus (right panel) and CFP (left panel) fluorescence image taken with a 40× objective. FIG. 3B: Plot of FRET ratio (Venus/CFP) versus time following addition of 10 μM ionomycin;
A HEK293 cell line stably expressing the Cameleon biosensor alone was treated with ionomycin (10 μM), a calcium ionophore, to raise the intracellular level of Ca^2+, and the FRET ratio was analysed by confocal microscopy.

[2] = biological target: T1, Nav1.5^Mut sodium channel (mutated human Nav1.5) (Homo sapiens, UniProt Q14524, F1486Q/K1419C); assay type: cell-based
T1 construct: expressed in transfected cells; host or cells: HEK293 cells stably expressing the Cameleon (Venus/CFP) calcium biosensor; clone VC/Nav1.5 #12
Description: VC/Nav1.5 #12 cells were incubated with different concentrations of quinidine (FIG. 6A), sertralin (FIG. 6B) or paroxetine (FIG. 6C), and a first fluorescence reading was performed, (FVenus/FCFP)0. 25 mM Ca^2+ was added to activate the channel and a second fluorescence reading was performed, (FVenus/FCFP)ca2+. […] Error bars represent the standard deviation of experiments performed in triplicate;
The fluorescence intensity was measured using a Packard Fusion™ Universal Microplate Analyzer. 75,000 cells per well were analyzed in a bath solution containing 140 mM NaCl, 2 mM KCl, 1.5 mM CaCl2, 1 mM MgCl2, 10 mM glucose, and 10 mM Na-HEPES. For calcium measurements, the bath solution contained: 140 mM NaCl, 2 mM KCl, 25 mM CaCl2, 10 mM glucose and 10 mM Na-HEPES. The pH of the bath solutions was adjusted to pH 7.4 using 1N NaOH.
Dose-response experiments in the presence of known sodium channel blockers (quinidine, sertralin and paroxetine) were performed.

[3] = system: VC #7 control Cameleon HEK293 cell line; test: Cameleon FRET fluorescence microplate assay in control Cameleon cell line VC #7 (does not express a sodium channel); assay type: cell-based, human; settings: VC #7 cell line that does not express a sodium channel; FIG. 4B
Text: The reporter cell lines described herein are derived from the HEK293 cell line, which, in turn, is derived from human embryonic kidney. […] To generate a Nav1.5^Mut/Cameleon reporter cell line, the first step was to establish a HEK293 cell line which expresses the Cameleon calcium biosensor alone. HEK293 cells were transfected with a vector (pIREShyg3, Clonetech, Cat. No. 631620) encoding the Cameleon construct (as described in Evanko and Haydon, Cell Calcium (2005) 37: 341-348). This cell line that express the Cameleon alone was then stably transfected with the pcDNA4neo-Nav1.5^Mut expression vector (see FIG. 7A for the sequence of Nav1.5^Mut). […] The resulting cell lines were then assessed in patch-clamp for their capacity to produce robust current amplitude.
Cameleon is a fluorescent biosynthetic Ca^2+ indicator constructed by inserting a Ca^2+ sensor (Calmodulin and M13, a calmodulin-binding protein) between two mutated forms of green fluorescent protein (GFP): the energy acceptor Venus, a derivative of yellow fluorescent protein (YFP), and the energy donor, cyan fluorescent protein (CFP) (Evanko D S and Haydon P G, Cell calcium 2005, 37: 341-348). Cameleon fluorescence is affected by differences in the concentration of Ca^2+ that alter the amount of fluorescence resonance energy transfer (FRET) between CFP and Venus. […]

## C[C@H](CCC(=O)O)C[C@H](C)C[C@H](C)C(=O)/C=C(\O)[C@H](C)C[C@H](C)C/C=C/[C@@H](C)[C@@H](O)[C@@H](C)[C@@H](O)C[C@@H]1CC[C@@](C)([C@H]2CC[C@@](C)([C@@H](C)O)O2)O1 [ionomycin]
[1]
  FRET ratio (Venus/CFP): increase in the Venus/CFP ratio
[2]; VC/Nav1.5 #12 and #14 cell lines, FIG. 4B
  FRET response to treatment: respond
[3]
  FRET response to treatment: respond only to ionomycin

## Fc1ccc([C@@H]2CCNC[C@H]2COc2ccc3c(c2)OCO3)cc1 [paroxetine]
[2]; VC/Nav1.5 #12 cells, increasing doses of blocker, 25 mM Ca2+ added to activate the channel, compared to control cells receiving buffer only, FIG. 6
  Delta FRET ratio signal, (FVenus/FCFP)Ca2+/(FVenus/FCFP)0: decrease in the Delta FRET ratio signal

## C=C[C@H]1C[N@@]2CC[C@H]1C[C@@H]2[C@@H](O)c1ccnc2ccc(OC)cc12 [quinidine]
[2]
  Delta FRET ratio signal, (FVenus/FCFP)Ca2+/(FVenus/FCFP)0: decrease in the Delta FRET ratio signal

## CN[C@H]1CC[C@@H](c2ccc(Cl)c(Cl)c2)c2ccccc21 [sertralin]
[2]
  Delta FRET ratio signal, (FVenus/FCFP)Ca2+/(FVenus/FCFP)0: decrease in the Delta FRET ratio signal
